{
  "source": "patent US20110003688A1",
  "about": "“Pesticidal Compound Mixtures” (Bayer CropScience AG, priority 2007, published 2011)",
  "assay_type_in_all_cases": "in vivo",
  "details_in_all_cases": "mortality",
  "key": {"[1]": {"test_system": "cotton aphid (Aphis gossypii)", "assay": "Aphis gossypii test (sprayed infested cotton leaves)", "protocol": "(§1) To produce a suitable preparation of active compound, 1 part by weight of active compound is mixed with the stated amount of solvent and emulsifier, and the concentrate is diluted with emulsifier-containing water to the desired concentration.\nCotton leaves (Gossypium hirsutum) which are heavily infested by the cotton aphid (Aphis gossypii) are treated by being sprayed with the preparation of the active compound at the desired concentration.\n(§2) After the specified period of time, the mortality in % is determined. 100% means that all the aphids have been killed; 0% means that none of the aphids have been killed."}, "[2]": {"test_system": "green peach aphid (Myzus persicae)", "assay": "Myzus persicae test (sprayed infested cabbage leaves)", "protocol": "as §1\nCabbage leaves (Brassica oleracea) which are heavily infested by the green peach aphid (Myzus persicae) are treated by being sprayed with the preparation of the active compound at the desired concentration.\nas §2"}, "[3]": {"test_system": "larvae of the beet army worm (Spodoptera exigua)", "assay": "Spodoptera exigua test (sprayed cabbage leaves infested with larvae)", "protocol": "as §1\nCabbage leaves (Brassica oleracea) are treated by being sprayed with the preparation of the active compound at the desired concentration and are infested with larvae of the beet army worm (Spodoptera exigua) as long as the leaves are still moist.\n(§3) After the specified period of time, the mortality in % is determined. 100% means that all the caterpillars have been killed; 0% means that none of the caterpillars have been killed."}, "[4]": {"test_system": "larvae of the fall army worm (Spodoptera frugiperda)", "assay": "Spodoptera frugiperda test (sprayed cabbage leaves infested with larvae)", "protocol": "as §1\nCabbage leaves (Brassica oleracea) are treated by being sprayed with the preparation of the active compound at the desired concentration and are infested with larvae of the fall army worm (Spodoptera frugiperda) as long as the leaves are still moist.\nas §3"}},
  "data": [
    {"smiles": "CC1(C)C(C=C(Cl)Cl)C1C(=O)OC(C#N)c1ccc(F)c(Oc2ccccc2)c1", "note": "(centres unmarked) [Cyfluthrin, cyfluthrin]", "values": [
      {"measurement": "Efficacy in % after 1 day", "setting": "[1]; 0.8 ppm", "value": 25, "unit": "%"}
    ]},
    {"smiles": "CC1(C)[C@H](C(=O)O[C@H](C#N)c2cccc(Oc3ccccc3)c2)[C@@H]1C=C(Br)Br", "note": "[Deltamethrin, deltamethrin]", "values": [
      {"measurement": "Efficacy in % after 1 day", "setting": "[2]; 0.8 ppm", "value": 50, "unit": "%"},
      {"measurement": "Efficacy in % after 4 days", "setting": "[3]; 0.16 ppm", "value": 0, "unit": "%"},
      {"measurement": "Efficacy in % after 4 days", "setting": "[4]; 0.8 ppm", "value": 70, "unit": "%"}
    ]},
    {"smiles": "CC[S+]([O-])c1c(C#N)nn(-c2c(Cl)cc(C(F)(F)F)cc2Cl)c1N", "note": "(centres unmarked) [Ethiprole, ethiprole]", "values": [
      {"measurement": "Efficacy in % after 1 day", "setting": "[1]; 4 ppm", "value": 30, "unit": "%"},
      {"measurement": "Efficacy in % after 1 day", "setting": "[2]; 4 ppm", "value": 0, "unit": "%"},
      {"measurement": "Efficacy in % after 6 days", "setting": "[2]; 4 ppm", "value": 0, "unit": "%"},
      {"measurement": "Efficacy in % after 4 days", "setting": "[3]; 0.8 ppm", "value": 0, "unit": "%"},
      {"measurement": "Efficacy in % after 4 days", "setting": "[4]; 4 ppm", "value": 40, "unit": "%"}
    ]},
    {"smiles": "CC1(C)[C@H](C(=O)O[C@H](C#N)c2cccc(Oc3ccccc3)c2)[C@@H]1/C=C(\\Cl)C(F)(F)F", "note": "[L-Cyhalothrin, lambda-cyhalothrin]", "values": [
      {"measurement": "Efficacy in % after 6 days", "setting": "[2]; 0.8 ppm", "value": 45, "unit": "%"}
    ]},
    {"smiles": "CC1(C)C(C=C(Cl)Cl)C1C(=O)OC(C#N)c1ccc(F)c(Oc2ccccc2)c1", "note": "(stereo not drawn) [β-Cyfluthrin, beta-cyfluthrin]", "values": [
      {"measurement": "Efficacy in % after 6 days", "setting": "[2]; 0.8 ppm", "value": 75, "unit": "%"}
    ]}
  ]
}
